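Briefly, cells in 96-well plates were exposed to five compound concentrations for 48 h, and endpoints were estimated by linear interpolation. TGI: concentration producing complete growth inhibition.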
What was measured:
Assay in all cases: NCI-60 cell line screen, 48 h
[1] = tested on: CAKI-1 renal
[2] = tested on: COLO 205 colon
[3] = tested on: HL-60(TB) leukemia
[4] = tested on: HOP-92 NSCLC
[5] = tested on: KM12 colon
[6] = tested on: LOX IMVI melanoma
[7] = tested on: OVCAR-4 ovarian
[8] = tested on: OVCAR-5 ovarian
[9] = tested on: SK-MEL-2 melanoma
[10] = tested on: SN12C renal
[11] = tested on: SNB-19 CNS
[12] = tested on: SR leukemia
[13] = tested on: MDA-MB-435

| SMILES | TGI [1] | TGI [2] | TGI [3] | TGI [4] | TGI [5] | TGI [6] | TGI [7] | TGI [8] | TGI [9] | TGI [10] | TGI [11] | TGI [12] | TGI [13] |
| --- | --- | --- | --- | --- | --- | --- | --- | --- | --- | --- | --- | --- | --- |
| CCCCC1(OC(=O)CCC(=O)O)CCC2(CCC(C)C(C/C=C(C)/C=C/C(O)C(C)/C=C/C(=O)O)O2)OC1CC/C(C)=C/C(=O)O (stereo not given) | 15.3 µM | 35.1 µM | 24.5 µM | 4.74 µM | 11.8 µM | 3.27 µM | 7.78 µM | 14.4 µM | 3.18 µM | 9.2 µM | 11.8 µM | > 48.7 µM |  |
| C=C(CO)[C@H]1CC/C(C)=C/CC/C(C)=C/C/C=C(\C)[C@H](O)C1 | 75.1 µM | 59.9 µM |  | 39.5 µM | 29.5 µM | 73.8 µM | > 100 µM | > 100 µM | 51.5 µM | 81.7 µM | > 100 µM |  | 35.8 µM |
| O=C(/C=C\c1cccc2ccccc12)c1ccc(Br)cc1 | > 100 µM | 91.6 µM | 43 µM | 85.6 µM | 28.3 µM |  | 35.5 µM | 47.4 µM |  | > 100 µM | 61.1 µM |  |  |
| N=c1oc2cc(O)c(O)cc2cc1C(N)=O | > 100 µM | > 100 µM |  | > 100 µM | > 100 µM | > 100 µM | > 100 µM | > 100 µM | > 100 µM | > 100 µM | > 100 µM |  |  |
| COc1ccc(-c2cc(=O)c3c(O)c(OC)c(O)cc3o2)cc1O | > 73.2 µM | 59.6 µM | 14.2 µM | > 85.9 µM | 18.6 µM | 32.7 µM | > 100 µM | > 100 µM | > 43.5 µM | > 100 µM | > 100 µM |  | > 100 µM |
| O=C(/C=C/c1c(O)c2ccccc2[nH]c1=O)CC(=O)C(=O)Nc1cccc(O)c1 | > 100 µM | > 100 µM | > 100 µM | > 100 µM | > 100 µM | > 100 µM | > 100 µM | > 100 µM | > 100 µM | > 100 µM | > 100 µM |  | > 100 µM |
| CN(C)c1cccc(-c2cc(=O)c3cc4c(cc3[nH]2)OCO4)c1 | > 100 µM | 0.823 µM | 2.23 µM | > 100 µM | 1.46 µM | > 100 µM | 4.59 µM | 0.92 µM | > 100 µM | > 100 µM | > 57.6 µM | > 100 µM |  |
| C=CCN1C(=O)N/C(=C\c2ccc(Cl)cc2)C1=O | > 100 µM | > 100 µM | > 100 µM | > 100 µM | > 100 µM | > 100 µM | > 100 µM | > 100 µM |  | > 100 µM | > 100 µM |  | > 100 µM |
| NC(=S)Nc1nnc(-c2ccc(-c3nnc(NC(N)=S)o3)cc2)o1 | > 100 µM | > 100 µM | > 100 µM | > 100 µM | > 100 µM | > 100 µM | > 100 µM | > 100 µM | > 100 µM | > 100 µM | > 100 µM |  |  |

Source: PubChem BioAssay (NCI)
